One experiment relates to UM-UC-3. The experiment is described as follows: Cell based assay, cell viability (CellTiter-Glo), UM-UC-3. The conditions noted are these: Homo sapiens, UMUC3; 72 hours, 0 to 2 µM; read-out: cell based assay cell line 4 UM-UC-3 IC50. As for the experimental part: (§1) Commercially available bladder cancer cell lines were treated with trypsin-EDTA and seeded in each well of a 96 well plate, followed by incubation for 24 hours. After incubation, candidate compounds were added to each well at a final concentration of 0 to 2 µM. The compound-treated cells were further incubated for 72 hours. Cell viability was measured using an ATP detection method (CellTiter-Glo Luminescent Cell Viability Assay, Promega).
(§2) The selectivity of the compounds of the present disclosure to cancer cells was evaluated in the same manner as described in "2. Cell based assay".
A general note: In ATP-based viability assays light output follows the ATP content of the culture.

In another experiment the test system is KU19-19. In words: Cell based assay, cell viability (CellTiter-Glo), KU19-19. The conditions noted are these: Homo sapiens, KU-19-19; 72 hours, 0 to 2 µM; read-out: cell based assay cell line 2 KU19-19 IC50. The protocol: as §1, §2
In another experiment the test system is 253J. The experiment is described as follows: Cell based assay, cell viability (CellTiter-Glo), 253J. The following applies: Homo sapiens; 72 hours, 0 to 2 µM; read-out: cell based assay cell line 3 253J IC50. The protocol: as §1, §2
A further experiment deals with MBT-2. In words: Cell based assay, cell viability (CellTiter-Glo), MBT-2. The conditions noted are these: 72 hours, 0 to 2 µM; read-out: cell based assay cell line 1 MBT-2 IC50. As for the experimental part: as §1, §2

The results in this text go back to patent EP3495350B1, “COMPOUND INHIBITING FORMATION OF C-MYC/MAX/DNA COMPLEX” (National Cancer Center, priority 2016, dated 2018).

For `CC(=O)c1c([S+]([O-])Cc2cc(C)on2)[nH]c2c(Br)ccc(Cl)c2c1=O` (stereo not drawn) [Compound 51, 3-acetyl-8-bromo-5-chloro-2-(((5-methylisoxazol-3-yl)methyl)sulfinyl)quinolin-4(1H)-one], the IC50 (usually the midpoint of a concentration-inhibition curve) was 630 nM in the experiment with UM-UC-3, 1260 nM in the experiment on KU19-19, 1130 nM with 253J and 760 nM in the experiment with MBT-2.
For `COc1cccc(C[S+]([O-])c2[nH]c3c(Br)ccc(Cl)c3c(=O)c2C(C)=O)c1` (stereo not drawn) [Compound 55, 3-acetyl-8-bromo-5-chloro-2-((3-methoxybenzyl)sulfinyl)quinolin-4(1H)-one], in that order: 1580 nM, 1380 nM, 1330 nM and above 2000 nM.
For `CC(=O)c1c([S+]([O-])Cc2ccc(C#N)s2)[nH]c2c(Br)ccc(Cl)c2c1=O` (stereo not drawn) [Compound 98, 5-(((3-acetyl-8-bromo-5-chloro-4-oxo-1,4-dihydroquinolin-2-yl)sulfinyl)methyl)thiophene-2-carbonitrile] the same measures were 1520 nM, 1900 nM, 1380 nM and 840 nM.
In the case of `CC(=O)c1c([S+]([O-])Cc2ccc(F)c(Cl)c2)[nH]c2c(Br)ccc(Cl)c2c1=O` (stereo not drawn) [Compound 31, 3-acetyl-8-bromo-5-chloro-2-((3-chloro-4-fluorobenzyl)sulfinyl)quinolin-4(1H)-one], the IC50 in the experiment on UM-UC-3 is 1020 nM; in the experiment with KU19-19, 1450 nM; with 253J, 890 nM; in the experiment with MBT-2, 1280 nM.
On to `CC(=O)c1c([S+]([O-])Cc2cc(F)cc(F)c2)[nH]c2c(Br)ccc(Cl)c2c1=O` (stereo not drawn) [Compound 46, 3-acetyl-8-bromo-5-chloro-2-((3,5-difluorobenzyl)sulfinyl)quinolin-4(1H)-one], for which the IC50 with UM-UC-3 amounted to 1220 nM; in the experiment with KU19-19 it was 1800 nM; with 253J, 1960 nM; with MBT-2, 1840 nM.
As to `CC(=O)c1c([S+]([O-])Cc2nonc2C)[nH]c2c(Br)ccc(Cl)c2c1=O` (stereo not drawn) [Compound 106, 3-acetyl-8-bromo-5-chloro-2-(((4-methyl-1,2,5-oxadiazol-3-yl)methyl)sulfinyl)quinolin-4(1H)-one], the IC50 in the experiment on UM-UC-3, in the experiment on KU19-19, in the experiment with 253J and with MBT-2 was above 2000 nM in each case.
For the compound `CC(=O)c1c([S+]([O-])C(C)c2ccccc2)[nH]c2c(Br)ccc(Cl)c2c1=O` (stereo not drawn) [Compound 26, 3-acetyl-8-bromo-5-chloro-2-((1-phenylethyl)sulfinyl)quinolin-4(1H)-one], the IC50 in the experiment with UM-UC-3, with KU19-19, in the experiment with 253J and in the experiment with MBT-2 was above 2000 nM each time.
Take `CC(=O)c1c([S+]([O-])Cc2cc(F)cc(S(F)(F)(F)(F)F)c2)[nH]c2c(Br)ccc(Cl)c2c1=O` (stereo not drawn) [Compound 76, 3-acetyl-8-bromo-5-chloro-2-((3-fluoro-5 - (pentafluoro-λ6-sulfanyl)benzyl)sulfinyl)quinolin-4(1H)-one]: the IC50 in the experiment on UM-UC-3 is 1390 nM; in the experiment on KU19-19, 1860 nM; in the experiment with 253J it was 1240 nM; in the experiment with MBT-2, 1860 nM.
On to `CC(=O)c1c([S+]([O-])Cc2ccc([N+](=O)[O-])cc2)[nH]c2c(Cl)ccc(Cl)c2c1=O` (stereo not drawn) [Compound 57, 3-acetyl-5,8-dichloro-2-((4-nitrobenzyl)sulfinyl)quinolin-4(1H)-one], for which the IC50 in the experiment on UM-UC-3 was above 2000 nM; in the experiment with KU19-19 it was 1830 nM; with 253J, 1920 nM; in the experiment with MBT-2, above 2000 nM.
Turning to `COc1cc(C[S+]([O-])c2[nH]c3c(Br)ccc(Cl)c3c(=O)c2C(C)=O)cc(OC)c1` (stereo not drawn) [Compound 59, 3-acetyl-8-bromo-5-chloro-2-((3,5-dimethoxybenzyl)sulfinyl)quinolin-4(1H)-one], the 50% inhibitory concentration (IC50) with UM-UC-3 was found to be 1370 nM; in the experiment on KU19-19, 1230 nM; in the experiment with 253J, 1140 nM; in the experiment with MBT-2 it was 1300 nM.
For `CC(=O)c1c([S+]([O-])Cc2cccc(F)c2)[nH]c2c(Br)ccc(Cl)c2c1=O` (stereo not drawn) [Compound 50, 3-acetyl-8-bromo-5-chloro-2-((3-fluorobenzyl)sulfinyl)quinolin-4(1H)-one], the IC50 in the experiment on UM-UC-3 turned out to be 1260 nM; with KU19-19, 1690 nM; in the experiment with 253J, 1430 nM; in the experiment on MBT-2, 1580 nM.
Regarding `CC(=O)c1c([S+]([O-])Cc2cc(Cl)ccc2Cl)[nH]c2c(Br)ccc(Cl)c2c1=O` (stereo not drawn) [Compound 44, 3-acetyl-8-bromo-5-chloro-2-((2,5-dichlorobenzyl)sulfinyl)quinolin-4(1H)-one], the IC50 in the experiment on UM-UC-3 is 970 nM; in the experiment on KU19-19, 1270 nM; in the experiment on 253J, 1240 nM; in the experiment with MBT-2, 1150 nM.
For `COc1cccc2[nH]c([S+]([O-])Cc3cc(C)on3)c(C(C)=O)c(=O)c12` (stereo not drawn) [Compound 94, 3-acetyl-5-methoxy-2-(((5-methylisoxazol-3 - yl)methyl)sulfinyl)quinolin-4(1H)-one], the concentration for half-maximal inhibition (IC50) in the experiment with UM-UC-3 is above 2000 nM; with KU19-19, above 2000 nM; in the experiment on 253J, above 2000 nM; in the experiment on MBT-2, 1530 nM.
As for `CC(=O)c1c([S+]([O-])Cc2cnc3[nH]ccc3c2)[nH]c2c(Br)ccc(Cl)c2c1=O` (stereo not drawn) [Compound 107, 2-(((1H-pyrrolo[2,3-b]pyridin-5-yl)methyl)sulfinyl)-3-acetyl-8-bromo-5-chloroquinolin-4(1H)-one], the IC50 in the experiment on UM-UC-3, with KU19-19, in the experiment with 253J and in the experiment with MBT-2 was above 2000 nM in each case.
Consider `CC(=O)c1c([S+]([O-])Cc2ccc(C(F)(F)F)o2)[nH]c2c(Br)ccc(Cl)c2c1=O` (stereo not drawn) [Compound 72, 3-acetyl-8-bromo-5-chloro-2-(((5-(trifluoromethyl)furan-2-yl)methyl)sulfinyl)quinolin-4(1H)-one], for which the IC50 stood at 820 nM in the experiment with UM-UC-3, 1370 nM in the experiment with KU19-19, 830 nM in the experiment on 253J and 1010 nM in the experiment with MBT-2.
Take `CC(=O)c1c([S+]([O-])Cc2ccc(NS(C)(=O)=O)cc2)[nH]c2c(Br)ccc(Cl)c2c1=O` (stereo not drawn) [Compound 103, N-(4-(((3-acetyl-8-bromo-5-chloro-4-oxo-1,4-dihydroquinolin-2-yl)sulfinyl)methyl)phenyl)methanesulfonamide]: the IC50 with UM-UC-3, with KU19-19, in the experiment on 253J and in the experiment with MBT-2 was above 2000 nM each time.
For the compound `CC(=O)c1c([S+]([O-])Cc2cccnc2)[nH]c2c(Br)ccc(Cl)c2c1=O` (stereo not drawn) [Compound 84, 3-acetyl-8-bromo-5-chloro-2-((pyridin-3-ylmethyl)sulfinyl)quinolin-4(1H)-one], the IC50 came to 760 nM in the experiment with UM-UC-3, 1500 nM with KU19-19, 870 nM with 253J and 670 nM with MBT-2.
For `COc1cc(S(F)(F)(F)(F)F)ccc1C[S+]([O-])c1[nH]c2c(Br)ccc(Cl)c2c(=O)c1C(C)=O` (stereo not drawn) [Compound 75, 3-acetyl-8-bromo-5-chloro-2-((2-methoxy-4-(pentafluoro-λ6-sulfanyl)benzyl)sulfinyl)quinolin-4(1H)-one] the same measures were 1010 nM, 1210 nM, 860 nM and 1050 nM.
For `CC(=O)c1c([S+]([O-])Cc2ccc(OC(F)(F)F)cc2)[nH]c2c(Br)ccc(Cl)c2c1=O` (stereo not drawn) [Compound 71, 3-acetyl-8-bromo-5-chloro-2-((4-(trifluoromethoxy)benzyl)sulfinyl)quinolin-4(1H)-one], in that order: 1610 nM, 1600 nM, 1110 nM and 1470 nM.
For `CC(=O)c1c([S+]([O-])Cc2ccc(C(F)(F)F)o2)[nH]c2c(F)ccc(F)c2c1=O` (stereo not drawn) [Compound 81, 3-acetyl-5,8-difluoro-2-(((5-(trifluoromethyl)furan-2-yl)methyl)sulfinyl)quinolin-4(1H)-one] the same measures were above 2000 nM, above 2000 nM, above 2000 nM and above 2000 nM.
On to `CC(=O)c1c([S+]([O-])Cc2ccc(Cl)nc2)[nH]c2c(Br)ccc(Cl)c2c1=O` (stereo not drawn) [Compound 104, 3-acetyl-8-bromo-5-chloro-2-(((6-chloropyridin-3-yl)methyl)sulfinyl)quinolin-4(1H)-one], for which the IC50 in the experiment on UM-UC-3 amounted to 1130 nM; in the experiment with KU19-19 it was 1500 nM; with 253J it was 870 nM; with MBT-2, 710 nM.
Regarding `CC(=O)c1c([S+]([O-])Cc2ccc(-n3cccn3)nc2)[nH]c2c(Br)ccc(Cl)c2c1=O` (stereo not drawn) [Compound 99, 2-(((6-(1H-pyrazol-1-yl)pyridin-3-yl)methyl)sulfinyl)-3-acetyl-8-bromo-5-chloroquinolin-4(1H)-one], the IC50 in the experiment on UM-UC-3 was 770 nM; in the experiment on KU19-19, 1120 nM; in the experiment with 253J, 800 nM; in the experiment with MBT-2, 470 nM.
For `CC(=O)c1c([S+]([O-])Cc2ccc(F)cc2F)[nH]c2c(Br)ccc(Cl)c2c1=O` (stereo not drawn) [Compound 29, 3-acetyl-8-bromo-5-chloro-2-((2,4-difluorobenzyl)sulfinyl)quinolin-4(1H)-one] the same measures were 1130 nM, 1680 nM, 960 nM and 1200 nM.
As for `Cc1cc(C[S+]([O-])c2[nH]c3c(Cl)ccc(Cl)c3c(=O)c2C(=O)C(C)C)no1` (stereo not drawn) [Compound 86, 5,8-dichloro-3-isobutyryl-2-(((5 - methylisoxazol-3-yl)methyl)sulfinyl)quinolin-4(1H)-one], the IC50 with UM-UC-3 was 1260 nM; in the experiment with KU19-19 it was 1410 nM; in the experiment on 253J, 1060 nM; in the experiment with MBT-2 it was 810 nM.
